Reference: PubChem BioAssay (NCI)
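Dose response: 5 concentrations. Exposure: 48 h. Format: 96-well plates. Endpoint: linear interpolation; highest concentration if not reached. Here, GI50 denotes the concentration required for 50% inhibition of growth. TGI: concentration producing complete growth inhibition.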

What was measured:
Assay in all cases: inhibition of tumour cell growth, NCI panel, 48 h
[1] = tested on: 786-0 renal
[2] = tested on: A549 NSCLC
[3] = tested on: ACHN renal
[4] = tested on: BT-549 breast
[5] = tested on: CAKI-1 renal
[6] = tested on: COLO 205 colon
[7] = tested on: DU-145 prostate
[8] = tested on: EKVX NSCLC
[9] = tested on: HCC-2998 colon
[10] = tested on: HCT-116 colon
[11] = tested on: HCT-15 colon
[12] = tested on: HOP-62 NSCLC
[13] = tested on: HT29 colon
[14] = tested on: IGROV1 ovarian
[15] = tested on: K-562 leukemia
[16] = tested on: KM12 colon
[17] = tested on: LOX IMVI melanoma
[18] = tested on: M14 melanoma
[19] = tested on: MALME-3M melanoma
[20] = tested on: MCF7 breast
[21] = tested on: MDA-MB-231 breast
[22] = tested on: MDA-MB-435
[23] = tested on: NCI-H226 lung
[24] = tested on: NCI-H23 lung
[25] = tested on: NCI-H460 lung
[26] = tested on: NCI/ADR-RES ovarian
[27] = tested on: OVCAR-3 ovarian
[28] = tested on: OVCAR-4 ovarian
[29] = tested on: OVCAR-5 ovarian
[30] = tested on: OVCAR-8 ovarian
[31] = tested on: PC-3 prostate
[32] = tested on: RPMI-8226 leukemia
[33] = tested on: SF-268 CNS
[34] = tested on: SF-295 CNS
[35] = tested on: SF-539 CNS
[36] = tested on: SK-MEL-2 melanoma
[37] = tested on: SK-MEL-5 melanoma
[38] = tested on: SK-OV-3 ovarian
[39] = tested on: SNB-19 CNS
[40] = tested on: SR leukemia
[41] = tested on: SW-620 colon
[42] = tested on: T-47D breast
[43] = tested on: TK-10 renal
[44] = tested on: U251 CNS
[45] = tested on: UACC-257 melanoma
[46] = tested on: UACC-62 melanoma
[47] = tested on: UO-31 renal
[48] = tested on: CCRF-CEM leukemia
[49] = tested on: HL-60(TB) leukemia
[50] = tested on: HS 578T breast
[51] = tested on: MOLT-4 leukemia
[52] = tested on: NCI-H522 lung
[53] = tested on: RXF 393 renal
[54] = tested on: SNB-75 CNS

**Q.** How did the TGI [1] turn out when `COCP1(=S)OC(C)CCN1C(C)C` (stereo not given) was run?
**A.** > 100 µM

**Q.** What about the TGI [2] of the same compound?
**A.** > 100 µM

**Q.** And the TGI [3]?
**A.** > 100 µM

**Q.** What about the TGI [4] of the same compound?
**A.** > 100 µM

**Q.** And the TGI [5]?
**A.** > 100 µM

**Q.** And the TGI [6]?
**A.** > 100 µM

**Q.** What about the TGI [7] of the same compound?
**A.** > 100 µM

**Q.** And the TGI [8]?
**A.** > 100 µM

**Q.** And the TGI [9]?
**A.** > 100 µM

**Q.** And the TGI [10]?
**A.** > 100 µM

**Q.** And the TGI [11]?
**A.** > 100 µM

**Q.** And the TGI [12]?
**A.** > 100 µM

**Q.** And the TGI [13]?
**A.** > 100 µM

**Q.** And the TGI [14]?
**A.** > 100 µM

**Q.** And the TGI [15]?
**A.** > 100 µM

**Q.** And the TGI [16]?
**A.** > 100 µM

**Q.** What about the TGI [17] of the same compound?
**A.** > 100 µM

**Q.** And the TGI [18]?
**A.** > 100 µM

**Q.** What about the TGI [19] of the same compound?
**A.** > 100 µM

**Q.** What about the TGI [20] of the same compound?
**A.** > 100 µM

**Q.** And the TGI [21]?
**A.** > 100 µM

**Q.** What about the TGI [22] of the same compound?
**A.** > 100 µM

**Q.** And the TGI [23]?
**A.** > 100 µM

**Q.** And the TGI [24]?
**A.** > 100 µM

**Q.** What about the TGI [25] of the same compound?
**A.** > 100 µM

**Q.** What about the TGI [26] of the same compound?
**A.** > 100 µM

**Q.** And the TGI [27]?
**A.** > 100 µM

**Q.** And the TGI [28]?
**A.** > 100 µM

**Q.** What about the TGI [29] of the same compound?
**A.** > 100 µM

**Q.** And the TGI [30]?
**A.** > 100 µM

**Q.** And the TGI [31]?
**A.** > 100 µM

**Q.** What about the TGI [32] of the same compound?
**A.** > 100 µM

**Q.** What about the TGI [33] of the same compound?
**A.** > 100 µM

**Q.** What about the TGI [34] of the same compound?
**A.** > 100 µM

**Q.** What about the TGI [35] of the same compound?
**A.** > 100 µM

**Q.** What about the TGI [36] of the same compound?
**A.** > 100 µM

**Q.** And the TGI [37]?
**A.** > 100 µM

**Q.** What about the TGI [38] of the same compound?
**A.** > 100 µM

**Q.** What about the TGI [39] of the same compound?
**A.** > 100 µM

**Q.** What about the TGI [40] of the same compound?
**A.** > 100 µM

**Q.** And the TGI [41]?
**A.** > 100 µM

**Q.** And the TGI [42]?
**A.** > 100 µM

**Q.** What about the TGI [43] of the same compound?
**A.** > 100 µM

**Q.** And the TGI [44]?
**A.** > 100 µM

**Q.** And the TGI [45]?
**A.** > 100 µM

**Q.** And the TGI [46]?
**A.** > 100 µM

**Q.** What about the TGI [47] of the same compound?
**A.** > 100 µM

**Q.** What does the source list for `COC(=O)/C=C1/SC(=Nc2ccc(C(F)(F)F)cc2)N(CCc2c[nH]c3ccc(O)cc23)C1=O`?
**A.** GI50 [2]: 3.05 µM; TGI [2]: > 100 µM; GI50 [5]: 2.71 µM; TGI [5]: > 100 µM; GI50 [48]: 0.569 µM; TGI [48]: 6.69 µM; GI50 [7]: 2.21 µM; TGI [7]: > 100 µM; GI50 [8]: 3.2 µM; TGI [8]: > 100 µM; GI50 [9]: 1.94 µM; TGI [9]: 3.56 µM; GI50 [49]: 1.57 µM; TGI [49]: 6.65 µM; GI50 [12]: 1.75 µM; TGI [12]: 3.85 µM; GI50 [50]: 1.87 µM; TGI [50]: 5.78 µM; GI50 [13]: 1.75 µM; TGI [13]: 3.43 µM; GI50 [15]: 1.55 µM; TGI [15]: > 100 µM; GI50 [17]: 1.25 µM; TGI [17]: 2.68 µM; GI50 [21]: 1.91 µM; TGI [21]: 4.67 µM; GI50 [51]: 0.349 µM; TGI [51]: 10.1 µM; GI50 [25]: 1.87 µM; TGI [25]: 3.79 µM; GI50 [52]: 1.5 µM; TGI [52]: 3.25 µM; GI50 [26]: 2.16 µM; TGI [26]: 8.96 µM; GI50 [30]: 1.62 µM; TGI [30]: 6.04 µM; GI50 [32]: 0.722 µM; TGI [32]: 3.26 µM; GI50 [53]: 1.16 µM; TGI [53]: 2.59 µM; GI50 [33]: 1.69 µM; TGI [33]: 5.36 µM; GI50 [36]: 1.52 µM; TGI [36]: 3.22 µM; GI50 [37]: 1.86 µM; TGI [37]: 3.99 µM; GI50 [54]: 2.27 µM; TGI [54]: 9.68 µM; GI50 [40]: 0.416 µM; TGI [40]: 5.25 µM; GI50 [42]: 2.07 µM; TGI [42]: 9.64 µM; GI50 [43]: 2.25 µM; TGI [43]: 5.76 µM; GI50 [44]: 1.46 µM; TGI [44]: 3.05 µM; GI50 [45]: 1.94 µM; TGI [45]: 5.17 µM
